Laboratory results reported in patent EP3895711A1, “CYCLOISOMALTOTETRAOSE, CYCLOISOMALTOTETRAOSE PRODUCTION ENZYME, AND PRODUCTION METHODS AND USES THEREOF” (Hayashibara Co., Ltd., priority 2018, dated 2020).
One block for each compound: values may come before it.

Columns and labels:
[1] = test system: cycloisomaltotetraose-forming enzyme from Agreia sp. D1110 (NITE BP-02815); assay: Substrate specificity of cycloisomaltotetraose-forming enzyme (TLC of reaction mixtures); assay type: biochemical; details: substrate 1% (w/v), 20 units/g-solid of enzyme, pH 6.0, 40°C, 24 hours; also: key: - : Not formed; + : Slightly formed; ++ : Formed; +++ : Significantly formed
From the text: Substrate specificity of cycloisomaltotetraose-forming enzyme was investigated using various saccharides as substrates. Aqueous solutions containing D-glucose, maltose, isomaltose, panose, isomaltotriose, isomaltotetraose, isomaltopentaose, isomaltohexaose, isomaltoheptaose, dextran T10 (average molecular weight: 10,000, commercialized by Pharmacosmos A/s., Denmark), dextran T70 (average molecular weight: 70,000, commercialized by Pharmacosmos A/s., Denmark), or dextran T2000 (average molecular weight: 2,000,000, commercialized by Pharmacosmos A/s., Denmark) were prepared as substrate solutions. To each substrate solution, acetate buffer and calcium chloride were added to give final concentrations of 50 mM and 1 mM, respectively, and then resulting solutions were admixed with 20 units/g-solid of cycloisomaltotetraose-forming enzyme from Agreia sp. […] To examine the saccharides in each reaction mixture before and after the reaction, saccharides were separated by silica gel thin-layer chromatography (hereinafter, abbreviated as "TLC") using "[…] 60F254", a TLC aluminum plate (10 x 20 cm) and a solvent (2-propanol/1-butanol/water, volume ratio of 12:3:4) with two-times ascending method. The separated saccharides on the plate were detected by visualizing the spots with sulfate-methanol method, and the degree of forming cycloisomaltotetraose from each substrate and the products other than cycloisomaltotetraose were investigated.

[2] = test system: cycloisomaltotetraose-forming enzyme from Agreia sp. D1110 (NITE BP-02815); assay: Action of cycloisomaltotetraose-forming enzyme on isomaltopentaose (TLC); assay type: biochemical; details: 1% (w/v) isomaltopentaose, 2.0 units/g-isomaltopentaose, pH 6.0, 40°C, 24 hours
Protocol: As a part of examining the substrate specificity of cycloisomaltotetraose-forming enzyme, the action of the enzyme on isomaltopentaose was investigated. To 0.5 mL of 50 mM acetate buffer (pH 6.0) containing 1% (w/v) of isomaltopentaose (prepared in Hayashibara Co., Ltd., Okayama, Japan, purity: 98.1% by weight) and 0.006% (w/v) hinokitiol as a preservative, 2.0 units/g-isomaltopentaose of a purified cycloisomaltotetraose-forming enzyme from Agreia sp. D1110 (NITE BP-02815), obtained by the method in Experiment 6, was added, and the resulting mixture was incubated at 40°C for 24 hours and then heated at 100°C for 10 min to inactivate the enzyme. To examine the reaction products in the reaction mixture, saccharides were separated by TLC using "KIESELGEL 60", a TLC aluminum plate (10 x 20 cm) and a solvent (acetonitrile/water/ethyl acetate/1-propanol, volume ratio of 85:70:20:50) and two-times ascending method. The separated saccharides on the plate were detected by visualizing the spots with sulfate-methanol method, and the reaction products formed from isomaltopentaose were investigated.

[3] = Preliminary test: alkaline treatment; assay type: physicochemical; details: preliminary test using a small amount of the reaction product
[4] = Thermal stability of cycloisomaltotetraose in aqueous solution; assay type: physicochemical; details: 7% (w/v) aqueous solution, 120°C
Protocol: An aqueous cycloisomaltotetraose solution with a solid concentration of 7% (w/v) was prepared by dissolving the crystalline cycloisomaltotetraose preparation with a purity of 99.5% by weight, obtained in Experiment 3-1. Eight milliliters each of the aqueous solution was taken in a glass centrifuge tube with a screw cap, sealed, and then heated for 30 to 90 min at 120°C. The solutions before heating and those after heating for various times were subjected to the measurement for the degree of coloring and for the cycloisomaltotetraose purity by HPLC method. The degree of coloring was defined as the absorbance at 480 nm measured by using a 1-cm cell.

α-glucosidase = molecular target: T1, α-glucosidase (Aspergillus niger, UniProt P56526); assay: Preliminary test: hydrolysis by α-glucosidase; assay type: biochemical; details: preliminary test using a small amount of the reaction product
T1 construct: purchased Amano Enzyme Co., Ltd. TRANSGLUCOSIDASE L Amano
T1 sequence (P56526 26-985): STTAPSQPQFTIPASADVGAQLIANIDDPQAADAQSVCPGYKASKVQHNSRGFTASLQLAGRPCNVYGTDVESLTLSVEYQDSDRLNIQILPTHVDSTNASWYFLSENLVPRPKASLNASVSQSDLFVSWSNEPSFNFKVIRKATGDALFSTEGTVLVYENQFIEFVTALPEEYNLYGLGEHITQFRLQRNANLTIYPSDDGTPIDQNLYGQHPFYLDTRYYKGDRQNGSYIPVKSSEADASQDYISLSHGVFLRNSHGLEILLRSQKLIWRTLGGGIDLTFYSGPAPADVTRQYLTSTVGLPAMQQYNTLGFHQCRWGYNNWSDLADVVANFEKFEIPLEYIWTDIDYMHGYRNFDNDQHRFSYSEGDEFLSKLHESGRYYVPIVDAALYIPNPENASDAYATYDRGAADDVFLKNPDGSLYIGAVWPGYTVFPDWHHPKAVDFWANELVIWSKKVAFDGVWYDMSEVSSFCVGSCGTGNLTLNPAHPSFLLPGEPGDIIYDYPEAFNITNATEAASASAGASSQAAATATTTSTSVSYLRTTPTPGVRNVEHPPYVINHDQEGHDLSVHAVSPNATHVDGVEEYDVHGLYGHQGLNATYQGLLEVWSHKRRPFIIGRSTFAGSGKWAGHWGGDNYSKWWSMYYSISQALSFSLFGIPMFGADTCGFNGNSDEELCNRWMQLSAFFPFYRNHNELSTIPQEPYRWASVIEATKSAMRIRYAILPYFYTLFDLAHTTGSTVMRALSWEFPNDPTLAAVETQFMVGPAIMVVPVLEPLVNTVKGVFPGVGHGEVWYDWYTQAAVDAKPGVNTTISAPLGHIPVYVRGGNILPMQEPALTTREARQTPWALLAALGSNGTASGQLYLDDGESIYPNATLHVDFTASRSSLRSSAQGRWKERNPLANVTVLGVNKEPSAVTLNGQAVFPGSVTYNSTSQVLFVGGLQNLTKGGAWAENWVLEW
Protocol: (§1) The enzymatic reaction product containing Unknown Saccharide I, obtained in Experiment 1-2, was adjusted to pH 5.0, admixed with 100 U/g-solid of "TRANSGLUCOSIDASE L Amano", α-glucosidase produced by Amano Enzyme Co., Ltd., and 1,000 U/g-solid of glucoamylase commercialized by Nagase ChemteX Co., Ltd., and then reacted at 50°C for 4 days. After the reaction, the reaction was stopped by heating the reaction mixture at about 100°C for 10 min. The saccharides in the resulting reaction mixture were analyzed by analytical high-performance liquid chromatography (hereinafter, abbreviated as "analytical HPLC"). As a result, D-glucose and Unknown Saccharide I were detected at elution times of 58.7 min and 49.4 min, respectively. The saccharide composition of the reaction mixture is 30.0% (w/w) of D-glucose, 65.5% (w/w) of Unknown Saccharide I, and 4.5% (w/w) of partial dextran hydrolysates containing isomaltooligosaccharides.

[5] = Digestivity test using small intestinal mucosal enzyme; assay type: in vitro ADME; details: rat, small intestine mucosal enzyme, 1% by weight, pH 6.0, 50 units/g-cycloisomaltotetraose, 37°C, read-out: residual rate (%) of cycloisomaltotetraose after the enzymatic reaction
Protocol: To the substrate solution, 50 units/g-cycloisomaltotetraose, as maltose-hydrolyzing activity, of small intestine mucosal enzyme (α-glucosidase) prepared from rat small intestine acetone powder, commercialized by Sigma-Aldrich Co., was added, and the resulting mixture was incubated at 37°C for 24 hours and then heated at 100°C for 10 min to inactivate the enzyme. The amounts of cycloisomaltotetraose in the solution before and after the reaction were determined by HPLC, and the residual rate (%) of cycloisomaltotetraose after the enzymatic reaction, i.e., (the amount after the reaction/the amount before the reaction) x 100, was measured.

[6] = pH stability of cycloisomaltotetraose; assay type: physicochemical; details: 4% (w/v), 100°C; for Degree of coloring (A480nm): 24 hours; for remaining at 24 h: read-out: Purity of cycloisomaltotetraose (% by weight)
Protocol: The crystalline cycloisomaltotetraose preparation obtained in Experiment 3-1 was dissolved in various buffers to make 7 kinds of aqueous cycloisomaltotetraose solutions with a cycloisomaltotetraose concentration of 4% (w/v), and with the pH adjusted to 3 to 9. Eight milliliters each of the aqueous solution was taken into a glass centrifuge tube with a screw cap, sealed, and heated at 100°C for 24 hours. After cooling them, the measurement for the degree of coloring degree of those aqueous solution and for the cycloisomaltotetraose purity were carried out in the same manner in Experiment 16.

glucoamylase = assay: Preliminary test: hydrolysis by glucoamylase; assay type: biochemical; details: preliminary test using a small amount of the reaction product
Protocol: as §1

SMILES: OC[C@H]1O[C@H](O[C@H]2[C@H](O)[C@@H](O)C(O)O[C@@H]2CO)[C@H](O)[C@@H](O)[C@@H]1O (mixture of isomers) [Maltose, maltose]
Formation of cycloisomaltotetraose [1]: -

Formation of cycloisomaltotetraose [1]: -
SMILES: OC[C@H]1OC(O)[C@H](O)[C@@H](O)[C@@H]1O (stereo partly drawn) [D-Glucose, D-glucose]

Formation of cycloisomaltotetraose [1]: +++
SMILES: OC[C@H]1O[C@H](OC[C@H]2O[C@H](OC[C@H]3O[C@H](OC[C@H]4O[C@H](OC[C@H]5O[C@H](OC[C@H]6O[C@H](OC[C@H]7OC(O)[C@H](O)[C@@H](O)[C@@H]7O)[C@H](O)[C@@H](O)[C@@H]6O)[C@H](O)[C@@H](O)[C@@H]5O)[C@H](O)[C@@H](O)[C@@H]4O)[C@H](O)[C@@H](O)[C@@H]3O)[C@H](O)[C@@H](O)[C@@H]2O)[C@H](O)[C@@H](O)[C@@H]1O (stereo partly drawn) [Isomaltoheptaose, isomaltoheptaose]

Formation of cycloisomaltotetraose [1]: +++
SMILES: OC[C@H]1O[C@H](OC[C@H]2O[C@H](OC[C@H]3O[C@H](OC[C@H]4O[C@H](OC[C@H]5O[C@H](OC[C@H]6OC(O)[C@H](O)[C@@H](O)[C@@H]6O)[C@H](O)[C@@H](O)[C@@H]5O)[C@H](O)[C@@H](O)[C@@H]4O)[C@H](O)[C@@H](O)[C@@H]3O)[C@H](O)[C@@H](O)[C@@H]2O)[C@H](O)[C@@H](O)[C@@H]1O (stereo partly drawn) [Isomaltohexaose, isomaltohexaose]

Formation of cycloisomaltotetraose [1]: ++
SMILES: OC[C@H]1O[C@H](OC[C@H]2O[C@H](OC[C@H]3O[C@H](OC[C@H]4O[C@H](OC[C@H]5OC(O)[C@H](O)[C@@H](O)[C@@H]5O)[C@H](O)[C@@H](O)[C@@H]4O)[C@H](O)[C@@H](O)[C@@H]3O)[C@H](O)[C@@H](O)[C@@H]2O)[C@H](O)[C@@H](O)[C@@H]1O (stereo partly drawn) [Isomaltopentaose, isomaltopentaose]
reaction products formed from isomaltopentaose [2]: produces cycloisomaltotetraose with isomaltotetraose, also slightly isomaltotriose, isomaltose, glucose and high molecular glucans

Formation of cycloisomaltotetraose [1]: -
SMILES: OC[C@H]1O[C@H](OC[C@H]2OC(O)[C@H](O)[C@@H](O)[C@@H]2O)[C@H](O)[C@@H](O)[C@@H]1O (stereo partly drawn) [Isomaltose, isomaltose]

Formation of cycloisomaltotetraose [1]: +
SMILES: OC[C@H]1O[C@H](OC[C@H]2O[C@H](OC[C@H]3O[C@H](OC[C@H]4OC(O)[C@H](O)[C@@H](O)[C@@H]4O)[C@H](O)[C@@H](O)[C@@H]3O)[C@H](O)[C@@H](O)[C@@H]2O)[C@H](O)[C@@H](O)[C@@H]1O (stereo partly drawn) [Isomaltotetraose, isomaltotetraose]

Formation of cycloisomaltotetraose [1]: -
SMILES: OC[C@H]1O[C@H](OC[C@H]2O[C@H](OC[C@H]3OC(O)[C@H](O)[C@@H](O)[C@@H]3O)[C@H](O)[C@@H](O)[C@@H]2O)[C@H](O)[C@@H](O)[C@@H]1O (stereo partly drawn) [Isomaltotriose, isomaltotriose]

Formation of cycloisomaltotetraose [1]: -
SMILES: OCC1OC(OCC2OC(OC3C(CO)OC(O)C(O)C3O)C(O)C(O)C2O)C(O)C(O)C1O (stereo not drawn) [Panose, panose]

SMILES: O[C@@H]1[C@@H](O)[C@H]2OC[C@H]3O[C@H](OC[C@H]4O[C@H](OC[C@H]5O[C@H](OC[C@@H](O2)[C@H]1O)[C@H](O)[C@@H](O)[C@@H]5O)[C@H](O)[C@@H](O)[C@@H]4O)[C@H](O)[C@@H](O)[C@@H]3O [cycloisomaltotetraose, cyclo{→6)-α-D-glucopyranosyl-(1→6)-α-D-glucopyranosyl-(1→6)-α-D-glucopyranosyl-(1→6)-α-D-glucopyranosyl-(1→}]
decomposition by alkaline treatment [3]: not decomposed
Degree of coloring (A480nm) ([4]; heating time 0 min): 0.000 A480nm
Purity of cycloisomaltotetraose (% by weight) ([4]; heating time 0 min): 99.5 % by weight
Degree of coloring (A480nm) ([4]; heating time 30 min): 0.000 A480nm
Degree of coloring (A480nm) ([4]; heating time 60 min): 0.000 A480nm
Degree of coloring (A480nm) ([4]; heating time 90 min): 0.000 A480nm
remaining at 0.5 h ([4]; water, heating time 30 min, read-out: Purity of cycloisomaltotetraose (% by weight)): 99.5%
remaining at 1 h ([4]; water, heating time 60 min, read-out: Purity of cycloisomaltotetraose (% by weight)): 99.5%
remaining at 1.5 h ([4]; water, heating time 90 min, read-out: Purity of cycloisomaltotetraose (% by weight)): 99.5%
hydrolysis by α-glucosidase (α-glucosidase): not hydrolyzed
remaining at 24 h [5]: 91.6%
Degree of coloring (A480nm) ([6]; pH 3, Acetate buffer): 0.000 A480nm
remaining at 24 h ([6]; pH 3, Acetate buffer): 93.5%
Degree of coloring (A480nm) ([6]; pH 4, Acetate buffer): 0.000 A480nm
remaining at 24 h ([6]; pH 4, Acetate buffer): 99.4%
Degree of coloring (A480nm) ([6]; pH 5, Acetate buffer): 0.000 A480nm
remaining at 24 h ([6]; pH 5, Acetate buffer): 99.4%
Degree of coloring (A480nm) ([6]; pH 6, Tris-HCl buffer): 0.000 A480nm
remaining at 24 h ([6]; pH 6, Tris-HCl buffer): 99.4%
Degree of coloring (A480nm) ([6]; pH 7, Tris-HCl buffer): 0.000 A480nm
remaining at 24 h ([6]; pH 7, Tris-HCl buffer): 99.5%
Degree of coloring (A480nm) ([6]; pH 8, Tris-HCl buffer): 0.001 A480nm
remaining at 24 h ([6]; pH 8, Tris-HCl buffer): 99.5%
Degree of coloring (A480nm) ([6]; pH 9, Ammonium buffer): 0.000 A480nm
remaining at 24 h ([6]; pH 9, Ammonium buffer): 99.4%
hydrolysis by glucoamylase (glucoamylase): not hydrolyzed
